Entries after “also recorded” stand apart in the source; their conditions may differ.
Key:
acute GVHD = test: mouse MHC class I/II disparate acute GVHD model; format: in vivo
Method: (§1) Lethally irradiated BALB/c mice were given 10e6 C57BL/6 bone marrow only (BM), or BM with 2e6 CD4+25−/CD8+25− Tcon cells without (BM+T) or with 1e6 Tregs treated with either DMSO (DMSO) or 10 μM AEB071 (AEB071) for 30 minutes. […] Tregs were treated with DMSO or AEB071 as above, and activated overnight with plate bound anti-CD3/28 and IL-2. […] […] Tregs were treated with DMSO or AEB071 and activated as above. […] Tregs were transfected with vimentin siRNA (vim) or control (GFP), and activated for 36 hours. CFSE-labeled Tcon were mixed with T-cell depleted splenocytes and soluble anti-CD3 mAb. Treg:Tcon ratios of 1:1-1:27 were plated and CFSE dilution assessed after 3 days.
(§2) FIG. 9A is a graph showing the percent survival of recipients. Tregs were transfected with either control (non-targeting) or vimentin siRNA. Recipient mice were given BM alone, BM+Tcon (BM+T), or BM+Tcon+Tregs; Tregs pre-treated with control or vimentin siRNA. […] Bars show mean±SEM. Survival differences analyzed by log-rank test. *, p<0.05; **, P<0.01; ***, P<0.0001; ****, p<0.00001 (Student's t-tests or one-way ANOVA with Tukey's post-test).
as §2, with “9B” for “9A”, “clinical GVHD scores (0=no disease, 10=most severe disease) for” for “percent survival of”
As Tregs exert much of their protective effect against GVHD early in the course of the disease, proliferation of GVHD-causing conventional T-cells (Tcon) on D4 after transplant was analyzed. […] Multi-photon microscopy on D4 was performed after transplant using TEα-GFP Tcon, CD11c-eYFP antigen presenting cells (APCs) and wild-type Tregs. […]

Tcon-APC interactions = test: multi-photon microscopy on D4 after transplant; format: in vivo, mouse; conditions: AEB071-treated Tregs vs DMSO
Method: As Tregs exert much of their protective effect against GVHD early in the course of the disease, proliferation of GVHD-causing conventional T-cells (Tcon) on D4 after transplant was analyzed. […] Multi-photon microscopy on D4 was performed after transplant using TEα-GFP Tcon, CD11c-eYFP antigen presenting cells (APCs) and wild-type Tregs.

Tregs [1] = test: flow cytometry of marker expression in activated Tregs; format: cell-based, mouse
Method: as §1
Bars show mean±SEM. *, p<0.05; **, P<0.01; ***, P<0.0001; ****, p<0.00001 (Student's t-tests or one-way ANOVA with Tukey's post-test).
Ratios of 0:1, 1:1, 1:3, 1:9 and 1:27 Treg:Teff were made. Four replicates of each ratio were made and plated in a 96-well, round bottom plate. After 3 days in culture, the cells from each well were harvested, washed with PBS and then stained with antibodies for flow cytometry analysis of CFSE dilution (proliferation) of CD4 and CD8 Tcon. The antibodies used were as follows: CD4-BV510, CD8-PE-ef610, CD25-BV605, Nrp1-PerCP-ef710, Lag3-APC, Fixable viability dye-APC-ef780, Foxp3-PE-Cy7, and Vimentin-PE.

splenic Tregs = test: flow cytometry of Tregs from acute GVHD recipients; format: in vivo, mouse; conditions: AEB071 vs DMSO treated Tregs isolated from acute GVHD mice
[2] = test system: phosphorylated proteins in activated Tregs; test: flow cytometry analysis of phosphorylated proteins (phosphoflow) in Tregs; format: cell-based, mouse
Method: In addition, the mTORC2-specific phosphorylation site on Akt, serine 473, was reduced, whereas the […] phosphorylation site, threonine 308, was unaltered. […] As both mTORC1 and mTORC2 are involved in T-cell metabolism, the effect of AEB071 treatment on Treg oxygen consumption rate (OCR) was investigated. […] Increased OCR has been associated with increased Treg function. […]
Since PKC-θ inhibition modulated Treg metabolism and mTORC2 function, experiments were performed to determine whether vimentin siRNA might have a similar effect. […] Since mTORC2 signaling was reduced after PKC-θ inhibition, it was hypothesized that mTORC2 activity also could be reduced after treatment with vimentin siRNA.

Tregs [3] = test: Treg metabolic activity (OCR, ECAR, BoDipyC1-C12 uptake); format: cell-based, mouse; conditions: AEB071 vs DMSO, after activation
Method: as §1
FIG. 9C is a graph showing basal and maximal oxygen consumption rate (OCR) and extracellular acidification rate (ECAR) measured after transfection. Tregs were transfected with either control (non-targeting) or vimentin siRNA. […] Bars show mean±SEM. Survival differences analyzed by log-rank test. *, p<0.05; **, P<0.01; ***, P<0.0001; ****, p<0.00001 (Student's t-tests or one-way ANOVA with Tukey's post-test).

Tcon = test: in vitro Treg suppression, Tcon type not specified; format: cell-based, mouse
Method: as §1
On day 3 after transfection, CD4/8 Tcon and T-cell depleted splenoctyes were isolated for a suppression assay. CD4/CD8 Tcon were purified from spleen of CD45.1 C57BL/6 mice using negative selection with eBioscience biotinylated Ab (anti-CD19, B220, NK1.1, gamma-delta TCR) and StemCell technologies streptavidin RapidSphere technology. Once isolated, Tcon were labeled with CFSE (2.5 μM) for 5 minutes at room temperature with constant agitation.
Responder Tcon were provided with 0.75 μg/mL soluble anti-CD3 mAb. […]

[4] = test system: in vitro-expanded human Tregs; test: phosphoproteomic screen with human Treg cells; format: cell-based
Method: Utilizing mass spectroscopy, a total of 12,452 phosphorylation sites were quantified from human Tregs. In order to determine significant differences between DMSO-treated and AEB071-treated Tregs, two experiments were performed concurrently: • Forward experiment: This experiment utilized heavy isotope-labeled Tregs treated with AEB071 and medium isotope-labeled Tregs treated with DMSO. • Reverse experiment: medium isotope-labeled Tregs treated with AEB071 and heavy isotope-labeled Tregs treated with DMSO.
After processing the raw spectra with Max Quant software, the positively identified phosphopeptides were analyzed using Persus software. Contaminating peptides and reverse database hits were filtered out and the peptide intensity values and normalized H/M ratios were log 2 transformed. The significances of the individual H/M ratios calculated using the Significance B test with a false discovery rate of 0.05 for the forward and reverse experiment separately.
Relying only on the Sig B test, the overlap between the two data sets was low with only 15% overlap. In order to improve the overlap between the two data sets, the data was filtered based on fold change (<1.5), consistency of ratios, phospho site localization probability (<75%), and the MaxQuant score (<75). By filtering the results, the overlap improved to 60%.

PKC-θ/vimentin = biological target: T1, PKC-θ/vimentin (Mus musculus, UniProt Q02111); test: confocal microscopy of PKC-θ and vimentin staining in activated Tregs; format: cell-based
T1 construct: endogenous in cells
T1 sequence (Q02111 whole entry): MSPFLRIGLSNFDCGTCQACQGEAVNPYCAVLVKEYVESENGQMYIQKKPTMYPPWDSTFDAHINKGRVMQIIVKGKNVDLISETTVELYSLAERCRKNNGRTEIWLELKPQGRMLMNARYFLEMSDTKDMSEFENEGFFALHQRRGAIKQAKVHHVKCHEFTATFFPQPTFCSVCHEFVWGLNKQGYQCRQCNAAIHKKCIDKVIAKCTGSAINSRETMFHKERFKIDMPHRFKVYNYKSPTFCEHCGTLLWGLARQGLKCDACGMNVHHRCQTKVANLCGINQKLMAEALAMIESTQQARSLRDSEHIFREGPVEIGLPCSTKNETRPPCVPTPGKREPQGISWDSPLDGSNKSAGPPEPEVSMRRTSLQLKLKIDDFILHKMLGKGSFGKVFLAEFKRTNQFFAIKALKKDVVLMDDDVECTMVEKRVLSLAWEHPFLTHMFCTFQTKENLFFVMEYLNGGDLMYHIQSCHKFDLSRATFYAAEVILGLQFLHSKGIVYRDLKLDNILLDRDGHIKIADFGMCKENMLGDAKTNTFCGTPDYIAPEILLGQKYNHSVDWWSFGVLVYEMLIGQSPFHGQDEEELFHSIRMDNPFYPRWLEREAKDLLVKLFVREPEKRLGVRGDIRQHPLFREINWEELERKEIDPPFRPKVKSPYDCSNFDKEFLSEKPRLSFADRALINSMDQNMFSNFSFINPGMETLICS
Method: FIG. 8A are photographs of the results of experiments in which Tregs were pre-treated with DMSO (control), AEB071, or vimentin siRNA, then activated. PKC-θ and vimentin staining were analyzed by confocal microscopy.
Since PKC-θ localization and function appear to be linked, experiments were performed to understand whether PKC-θ inhibition modulated PKC-θ localization. Consistent with previous work, PKC-θ accumulated at the distal pole of control Tregs after 5 minutes of anti-CD3/CD28 mAb activation (FIG. 8A, top).

[5] = 10 μM AEB071 30 minutes vs DMSO, activated overnight with anti-CD3/28 and IL-2
[6] = PKC-θ inhibition (AEB071), activated Tregs

In the case of `CN1CCN(c2nc(C3=C(c4c[nH]c5ccccc45)C(=O)NC3=O)c3ccccc3n2)CC1` [AEB071], the GVHD severity (acute GVHD; Tregs treated 30 minutes with 10 μM AEB071 vs DMSO-treated Tregs) was “significantly better”, the “recipient survival / GVHD mortality” value (acute GVHD; Tregs treated 30 minutes with 10 μM AEB071 vs DMSO-treated Tregs, p=0.0036) was “significantly increased recipient survival; also recorded: significantly better” and the “Tcon proliferation on D4 after transplant” value (acute GVHD; mice given AEB071 treated Tregs vs DMSO treated Tregs) was “significant reduction”. The “Tcon displacement from APCs” value (Tcon-APC interactions) was “significantly increased”, the Tcon velocity (Tcon-APC interactions) was “significantly increased” and the “surface expression of Lymphocyte activation gene 3 (Lag3)” value (Tregs [1]; [5]) was “significantly increased; also recorded: augmented expression”. For the same compound, the “surface expression of Neuropilin-1 (Nrp1)” value (Tregs [1]; [5]) was “significantly increased; also recorded: augmented expression”, the “GI homing molecule expression” value (Tregs [1]; AEB071 treatment) was “did not increase” and the “expression of Lag3” value (splenic Tregs) was “augmented expression”. For the same compound, the “expression of Nrp1” value (splenic Tregs) was “augmented expression”, the “PKC-θ auto-phosphorylation at Ser676” value ([2]; AEB071 treatment, stated by comparison with vimentin siRNA) was “significantly reduced” and the “Akt phosphorylation at serine 473 (mTORC2-specific site)” value [2, 6] was “reduced”. For the same compound, the “Akt phosphorylation at threonine 308 (mTORC1-specific site)” value [2, 6] was “unaltered”, the “phosphorylation of mTORC2 target FoxO3a” value [2, 6] was “reduced phosphorylation” and the “baseline Treg oxygen consumption rate (OCR)” value (Tregs [3]; time 0-19 min) was “significantly increased”. The “maximal Treg OCR” value (Tregs [3]; time 53-70 min) was “significantly increased”, the “Treg function after AEB071-treatment of vimentin siRNA transfected Tregs” value (Tcon; AEB071 added to vimentin siRNA transfected Tregs) was “did not further augment” and the “effect of AEB071 treatment under antibody blockade of Nrp1 and Lag3” value (Tcon; in vitro trans-well suppression assays) was “reduced the effect”. For the same compound, the “number of proteins with significant alterations in phosphorylation sites” value ([4]; AEB071 vs DMSO treated human Tregs) was 72, the “phosphorylation of adaptor molecule that links PKC-θ to vimentin (RLTPR)” value ([4]; AEB071 vs DMSO, b140: RLTPR serine 1226, PKC-theta consensus site) was “reduced phosphorylation” and the “interaction / overlap between vimentin and PKC-θ” value (PKC-θ/vimentin; AEB071-pre-treated Tregs after activation vs control) was “reduced the interaction”. For the same compound, the PKC-θ localization (PKC-θ/vimentin; AEB071-pre-treated Tregs after anti-CD3/CD28 activation vs control) was “dispersed throughout the cell”.

From US10993959B2, “Methods and compositions for increasing the suppressive function of regulatory T-cells (Tregs)” (Regents of the University of Minnesota, priority 2015, dated 2021)
